Reference: patent US9297048B2, “Antibiotic resistance profile for Neisseria gonorrhoeae and use of same in diagnosis and treatment of gonorrhea” (Medical Diagnostic Laboratories, LLC, priority 2010, dated 2016)
Read-outs that look alike come from different tables or passages of the source.

How the values were obtained:
[1] = test system: Neisseria gonorrhoeae from clinical sample 1; experiment: Antibiotic resistance panel assay on cervicovaginal swab; conditions: mutations in penA, ponA, porB, mtrR, rpsJ
Excerpt: (§10) Cervicovaginal swabs were obtained using OneSwab® technology.
The presence of Neisseria gonorrhoeae in all three (3) clinical samples were confirmed using our panel assay in which porA was used as a Neisseria gonorrhoeae species-specific marker.

[2] = test system: Neisseria gonorrhoeae from clinical sample 2; experiment: as above; conditions: mutations in penA, gyrA, ponA, parC, porB, mtrR, rpsJ
Excerpt: as §10

[3] = test system: Neisseria gonorrhoeae strain ATCC 19424; experiment: Neisseria gonorrhoeae antibiotic resistance panel assay (multiplex PCR + allele-specific primer extension); conditions: no mutations/genetic markers detected
Excerpt: (§1) FIG. 1 is a flow chart summarizing the overall steps for our antibiotic resistance assay. Note that the assay involves multiplex PCRs, followed by allele-specific primer extensions and detection means (e.g., capillary electrophoresis, gel electrophoresis or DNA micro array).
(§2) DNA was isolated from either cells obtained from ATCC or clinical samples (e.g., cervical swab) using standard protocols (i.e., guanidine thiocyanate extraction). Multiplex PCR primers were designed using Beacon Designer software v5.0 (Premier Biosoft, CA). The choice of primers was determined using several parameters including primer length, primer melting temperature, primer annealing temperature and GC content. These primers were selected to avoid hairpin and primer-dimer formation (i.e., avoid possible non-specific hybridization). In our assay, we performed four (4) multiplex PCR. This permits a rapid amplification of genes via multiplex PCRs that lack interference.
(§3) Using the selected primers (Example 4), we performed multiplex allele-specific primer extension reactions. The allele-specific primer extension reaction was performed in a single vessel, which contained a total volume of 20 μl. The multiplex allele-specific reactions contained 1×PCR buffer (Invitrogen, CA), 1.25 mM MgCl2, 100 nM of each primer, 5 μM dATP, dTTP, dGTP (Invitrogen, CA), 5 μM biotin-dCTP (Invitrogen, CA), 1 U of Tsp DNA polymerase (Invitrogen, CA), and 5 μl of purified multiplex PCR products from all four (4) multiplex PCRs as templates.
(§4) Thermal cycling conditions for extension reactions were performed in a Biometra 3.0 PCR System (Biometra, Germany) programmed for an initial cycle of 1 min at 95° C. followed by 35 cycles of 30 sec at 95° C., 30 sec at 55° C., and 30 sec at 72° C. A final 10 min extension step was performed at 72° C.
(§5) Detection of allele-specific extended primers is indicative of the presence of SNP in the genes examined. Detection of allele-specific extended primers can be achieved by several methodologies. This includes gel electrophoresis, capillary electrophoresis, as well as DNA microarray. In this particular example, we illustrated the use of a DNA microarray. The working principle of a DNA microarray involves the use of microspheres to hybridize and sort out the allele-specific extended primers, and followed by their subsequent detection using an array reader. The presence of fluorescence is indicative of the presence of an allele-specific extended primer, which in turn is indicative of the presence of a SNP in the gene.
(§6) Extended allele-specific primer hybridizations were performed using oligonucleotide-labeled xMAP flow cytometric microspheres (Luminex Corp, TX) in a hybridization buffer containing 0.2 M NaCl, 0.08% sodium lauroylsarcosine, 0.1 M Tris-HCl, pH 8.0, and 4 mM EDTA pH 8.0. Reactions were carried out in a Biometra 3.0 PCR System (Biometra, Germany) programmed for a 3 min melting at 95° C. and a 15 min hybridization at 37° C.
(§7) Sorting of allele-specific extended primers hybridized to xMAP microspheres was performed using a Bio-Plex 200 (Bio-Rad, CA) flow cytometry instrument.
(§8) 1 μl Streptavidin R-phycoerythrin conjugate (SAPE) and 250 μl 1×NaCl hybridization buffer was added to each sorted xMAP microsphere. Microspheres hybridized to allele-specific extended primers containing biotin-dCTP fluoresce and were detected using the Bio-Plex 200 array reader.
(§9) Using our antibiotic resistance panel assay, we examined the antibiotic resistance profile in these six (6) Neisseria gonorrhoeae strains. The results of the panel assay are presented in graphical format which includes 30 genetic markers (i.e., 28 point mutations in eight (8) chromosomal genes in Neisseria gonorrhoeae, two (2) plasmid genes, as well as 17 alleles in controls). Normal alleles are shown by white bars, mutant alleles, confirming resistance, are shown by black bars (See, FIGS. 3-8). […]

[4] = test system: Neisseria gonorrhoeae strain ATCC 27628; experiment: as above; conditions: no mutations/genetic markers detected
Excerpt: as §1, §2, §3, §4, §5, §6, §7, §8, §9

[5] = test system: Neisseria gonorrhoeae strain ATCC 49981; experiment: as above; conditions: concluded from mutations/genetic markers detected
Excerpt: as §1, §2, §3, §4, §5, §6, §7, §8, §9

[6] = test system: Neisseria gonorrhoeae strain ATCC 31426; experiment: as above; conditions: concluded from mutations/genetic markers detected
Excerpt: as §1, §2, §3, §4, §5, §6, §7, §8, §9

[7] = test system: Neisseria gonorrhoeae isolates containing mosaic penA; conditions: cited from earlier work
[8] = test system: Neisseria gonorrhoeae strain ATCC 31953; experiment: Neisseria gonorrhoeae antibiotic resistance panel assay (multiplex PCR + allele-specific primer extension); conditions: concluded from mutations/genetic markers detected
Excerpt: as §1, §2, §3, §4, §5, §6, §7, §8, §9

[9] = test system: Neisseria gonorrhoeae from clinical sample 3; experiment: Antibiotic resistance panel assay on cervicovaginal swab; conditions: mutations in penA and rpsJ
[10] = test system: Neisseria gonorrhoeae strain ATCC 49226; experiment: Neisseria gonorrhoeae antibiotic resistance panel assay (multiplex PCR + allele-specific primer extension); conditions: concluded from mutations/genetic markers detected
Excerpt: as §1, §2, §3, §4, §5, §6, §7, §8, §9

Molecule	level of antibiotic resistance implied by panel assay [1]	level of resistance implied by panel assay [2]	Antibiotic Resistance Profile Using our Assay [3]	Antibiotic Resistance Profile Using our Assay [4]	Antibiotic Resistance Profile Using our Assay [5]	Antibiotic Resistance Profile Using our Assay [6]	MICs ([7]; three of five mosaic penA isolates containing the G545S C-terminal mutation)	MICs ([7]; two mosaic penA isolates without the G545S C-terminal mutation)	Antibiotic Resistance Profile Using our Assay [8]	level of resistance implied by panel assay [9]	Antibiotic Resistance Profile Using our Assay [10]
CC[C@H]1OC(=O)[C@H](C)[C@@H](O[C@H]2C[C@@](C)(OC)[C@@H](O)[C@H](C)O2)[C@H](C)[C@@H](O[C@@H]2O[C@H](C)C[C@H](N(C)C)[C@H]2O)[C@](C)(O)C[C@@H](C)CN(C)[C@H](C)[C@@H](O)[C@]1(C)O [azithromycin]	intermediate level of antibiotic resistance	intermediate level of resistance	susceptible	susceptible	resistant	resistant	–	–	–	–	–
CO/N=C(\C(=O)N[C@@H]1C(=O)N2C(C(=O)O)=C(CSc3nc(=O)c(=O)[nH]n3C)CS[C@H]12)c1csc(N)n1 [ceftriaxone]	–	–	–	–	–	–	elevated MICs	wild-type MICs	–	–	–
O=C(O)c1cn(C2CC2)c2cc(N3CCNCC3)c(F)cc2c1=O [ciprofloxacin]	–	–	susceptible	susceptible	resistant	resistant	–	–	resistant	–	–
CN[C@@H]1[C@H](O)[C@H](NC)[C@H]2O[C@@]3(O)C(=O)C[C@@H](C)O[C@H]3O[C@@H]2[C@H]1O [spectinomycin]	–	–	susceptible	susceptible	–	–	–	–	–	–	–
penicillin	intermediate level of antibiotic resistance	high level of resistance	susceptible	susceptible	resistant	resistant	–	–	–	low level of resistance	resistant
